Experimental data: patent US9951467B2, “Bacteriostatically treating method” (JNC CORPORATION, priority 2009, dated 2018)

Tests used:
E. coli = assay: Antibacterial test on fiber samples immersed in polycationic polypeptide aqueous solution, bactericidal activity value (L); format: cell-based, Escherichia coli
From the text: (§1) Here, the bactericidal activity value (L) is defined by the following equation (for details, see the Approval Standard for Antibacterial and Deodorant Textile Products set forth by the Japan Textile Evaluation Technology Council (JTETC)). When this value (L) is ≥0, the textile product is considered to have an antibacterial effect, and it becomes eligible to be approved as a bacteriostatically treated textile product (with SEK Mark).
(§2) L (bactericidal activity value)=(Ma−Mc)
(§3) Ma: Average common logarithm value of the viable cell count or the ATP amount, which was measured for three samples immediately after the inoculation thereof onto a standard cloth.
(§4) Mc: Average common logarithm value of the viable cell count or the ATP amount, which was measured for three samples after 18 hours of culturing on an antibacterially treated cloth.
(§5) Threads, each of which was cut into 0.4 g in weight, were used as the fiber samples. Into a polycationic polypeptide aqueous solution of a prescribed concentration which was heated to a prescribed temperature (25, 50 or 75° C.), the samples were immersed for a prescribed period of time. The followings were used as the polycationic polypeptide.
(§6) Then, the fiber samples were washed by a simple method which was modified from the washing method according to JIS L-0217 103 (“Antimicrobial Agent of SENKA Corporation”; Everything about antimicrobial agents, p. 595-598, 1997, Sen-i Co., Ltd.), and the thus washed samples were dried in the air. The washing method was carried out by the following steps.
(§7) (1) Water having a temperature of 40° C. is filled into the washer water tank up to the highest line for the water level. To this water, “JAFET standard detergent (polyoxyethylene alkyl ether)” is added at a ratio of 40 mL of the detergent to 30 L of water to obtain washing solution.
(§8) (2) The fiber samples are placed into the washing solution in such a manner that the bath ratio (the weight ratio of the fibers and the washing solution at the time of washing of the fibers after the immersion) becomes 1:30, and the washing machine is operated for 25 minutes.
(§9) (3) The fiber samples are dehydrated by a dehydrator. The dehydration is carried out for 7 to 8 minutes.
(§10) (4) The washing solution is replaced with fresh water at room temperature, and rinsing and washing are performed in the filled water for 4 minutes at the same bath ratio.
(§11) (5) The fiber samples are dehydrated by a dehydrator. The dehydration is carried out for 7 to 8 minutes.
(§12) (6) Rinsing and washing are performed with running water for 2 minutes.
(§13) (7) Considering the above (1) to (6) as 5 washings, these steps are repeated twice to have the fiber samples be “washed 10 times”.
(§14) (8) The fiber samples are dehydrated by a dehydrator.
(§15) A bacterial suspension which was cultured in normal broth at 30° C. for 18 hours was mixed and diluted to prepare a diluted bacterial suspension having a concentration of 10^6 cells/mL. Placed into a vial was 0.4 g of fiber sample which was not washed or washed 10 times. Thereto inoculated was 400 μL of the diluted bacterial suspension, which was then allowed to soak into the sample, and the sample was incubated at 37° C. After 18 hours, 20 mL of physiological saline was added to the vial and the resultant was stirred using a mixer (5 seconds×5 times) to suspend the bacterial cells. The thus obtained suspension was diluted as appropriate, and the number of bacterium was counted to calculate the bactericidal activity value (L) based on the aforementioned equation. Here, the tested bacteria were E. coli and S. aureus.

S. aureus = assay: as above; format: cell-based, Staphylococcus aureus
From the text: as §1, §2, §3, §4, §5, §6, §7, §8, §9, §10, §11, §12, §13, §14, §15

[1] = Acryl 100% thread, immersion 25° C., 2 hours
[2] = Acryl 100% thread, immersion 25° C., 3 hours
[3] = Acryl 100% thread, immersion 25° C., 24 hours
[4] = Cotton 100% thread, immersion 50° C., 2 hours
[5] = Cotton 100% thread, immersion 50° C., 3 hours
[6] = Cotton 100% thread, immersion 50° C., 24 hours
[7] = Cotton 100% thread, immersion 75° C., 2 hours
[8] = Cotton 100% thread, immersion 75° C., 3 hours
[9] = Cotton 100% thread, immersion 75° C., 24 hours
[10] = Hemp 100% thread, immersion 25° C., 2 hours
[11] = Hemp 100% thread, immersion 25° C., 3 hours
[12] = Hemp 100% thread, immersion 25° C., 24 hours
[13] = Nylon 100% thread, immersion 25° C., 2 hours
[14] = Nylon 100% thread, immersion 25° C., 3 hours
[15] = Nylon 100% thread, immersion 25° C., 24 hours
[16] = Polyester 100% thread, immersion 25° C., 2 hours
[17] = Polyester 100% thread, immersion 25° C., 3 hours
[18] = Polyester 100% thread, immersion 25° C., 24 hours
[19] = Rayon 100% thread, immersion 25° C., 2 hours
[20] = Rayon 100% thread, immersion 25° C., 3 hours
[21] = Rayon 100% thread, immersion 25° C., 24 hours
[22] = Wool 100% thread, immersion 50° C., 2 hours
[23] = Wool 100% thread, immersion 50° C., 3 hours
[24] = Wool 100% thread, immersion 50° C., 24 hours
[25] = Wool 100% thread, immersion 75° C., 2 hours
[26] = Wool 100% thread, immersion 75° C., 3 hours
[27] = Wool 100% thread, immersion 75° C., 24 hours
[28] = cotton thread and wool, immersion 50° C., 2 hours or more (text summary of Table 1)
[29] = threads of various materials, immersion 25° C., 2 hours or more (text summary of Table 2)

ϵ-polylysine [ε-polylysine]
500 ppm: ε-polylysine concentration at which L ≥ 0 was attained, E. coli (E. coli; [1]) | ε-polylysine concentration at which L ≥ 0 was attained, E. coli (E. coli; [2]) | ε-polylysine concentration at which L ≥ 0 was attained, E. coli (E. coli; [10]) | ε-polylysine concentration at which L ≥ 0 was attained, E. coli (E. coli; [11]) | ε-polylysine concentration at which L ≥ 0 was attained, E. coli (E. coli; [13]) | ε-polylysine concentration at which L ≥ 0 was attained, E. coli (E. coli; [14]) | ε-polylysine concentration at which L ≥ 0 was attained, E. coli (E. coli; [16]) | ε-polylysine concentration at which L ≥ 0 was attained, E. coli (E. coli; [17]) | ε-polylysine concentration at which L ≥ 0 was attained, E. coli (E. coli; [19]) | ε-polylysine concentration at which L ≥ 0 was attained, E. coli (E. coli; [20]) | concentration of ϵ-polylysine aqueous solution at which bacteriostatic effect against E. coli was attained (E. coli; [29]) | ε-polylysine concentration at which L ≥ 0 was attained, S. aureus (S. aureus; [1]) | ε-polylysine concentration at which L ≥ 0 was attained, S. aureus (S. aureus; [2]) | ε-polylysine concentration at which L ≥ 0 was attained, S. aureus (S. aureus; [4]) | ε-polylysine concentration at which L ≥ 0 was attained, S. aureus (S. aureus; [5]) | ε-polylysine concentration at which L ≥ 0 was attained, S. aureus (S. aureus; [6]) | ε-polylysine concentration at which L ≥ 0 was attained, S. aureus (S. aureus; [7]) | ε-polylysine concentration at which L ≥ 0 was attained, S. aureus (S. aureus; [8]) | ε-polylysine concentration at which L ≥ 0 was attained, S. aureus (S. aureus; [9]) | ε-polylysine concentration at which L ≥ 0 was attained, S. aureus (S. aureus; [10]) | ε-polylysine concentration at which L ≥ 0 was attained, S. aureus (S. aureus; [11]) | ε-polylysine concentration at which L ≥ 0 was attained, S. aureus (S. aureus; [13]) | ε-polylysine concentration at which L ≥ 0 was attained, S. aureus (S. aureus; [14]) | ε-polylysine concentration at which L ≥ 0 was attained, S. aureus (S. aureus; [16]) | ε-polylysine concentration at which L ≥ 0 was attained, S. aureus (S. aureus; [17]) | ε-polylysine concentration at which L ≥ 0 was attained, S. aureus (S. aureus; [19]) | ε-polylysine concentration at which L ≥ 0 was attained, S. aureus (S. aureus; [20]) | ε-polylysine concentration at which L ≥ 0 was attained, S. aureus (S. aureus; [22]) | ε-polylysine concentration at which L ≥ 0 was attained, S. aureus (S. aureus; [23]) | ε-polylysine concentration at which L ≥ 0 was attained, S. aureus (S. aureus; [24]) | ε-polylysine concentration at which L ≥ 0 was attained, S. aureus (S. aureus; [25]) | ε-polylysine concentration at which L ≥ 0 was attained, S. aureus (S. aureus; [26]) | ε-polylysine concentration at which L ≥ 0 was attained, S. aureus (S. aureus; [27]) | concentration of ϵ-polylysine aqueous solution at which bacteriostatic effect against S. aureus was attained (S. aureus; [28]) | concentration of ϵ-polylysine aqueous solution at which bacteriostatic effect against S. aureus was attained (S. aureus; [29])
2,500 ppm: ε-polylysine concentration at which L ≥ 0 was attained, E. coli (E. coli; [4]) | ε-polylysine concentration at which L ≥ 0 was attained, E. coli (E. coli; [5]) | ε-polylysine concentration at which L ≥ 0 was attained, E. coli (E. coli; [6]) | ε-polylysine concentration at which L ≥ 0 was attained, E. coli (E. coli; [7]) | ε-polylysine concentration at which L ≥ 0 was attained, E. coli (E. coli; [8]) | ε-polylysine concentration at which L ≥ 0 was attained, E. coli (E. coli; [9]) | ε-polylysine concentration at which L ≥ 0 was attained, E. coli (E. coli; [22]) | ε-polylysine concentration at which L ≥ 0 was attained, E. coli (E. coli; [23]) | ε-polylysine concentration at which L ≥ 0 was attained, E. coli (E. coli; [24]) | ε-polylysine concentration at which L ≥ 0 was attained, E. coli (E. coli; [25]) | ε-polylysine concentration at which L ≥ 0 was attained, E. coli (E. coli; [26]) | ε-polylysine concentration at which L ≥ 0 was attained, E. coli (E. coli; [27]) | concentration of ϵ-polylysine aqueous solution at which bacteriostatic effect against E. coli was attained (E. coli; [28])
250 ppm: ε-polylysine concentration at which L ≥ 0 was attained, E. coli (E. coli; [3]) | ε-polylysine concentration at which L ≥ 0 was attained, E. coli (E. coli; [15]) | ε-polylysine concentration at which L ≥ 0 was attained, E. coli (E. coli; [21]) | ε-polylysine concentration at which L ≥ 0 was attained, S. aureus (S. aureus; [3]) | ε-polylysine concentration at which L ≥ 0 was attained, S. aureus (S. aureus; [12]) | ε-polylysine concentration at which L ≥ 0 was attained, S. aureus (S. aureus; [15]) | ε-polylysine concentration at which L ≥ 0 was attained, S. aureus (S. aureus; [18]) | ε-polylysine concentration at which L ≥ 0 was attained, S. aureus (S. aureus; [21])
800 ppm: ε-polylysine concentration at which L ≥ 0 was attained, E. coli (E. coli; [12]) | ε-polylysine concentration at which L ≥ 0 was attained, E. coli (E. coli; [18])
